In ChEMBL document CHEMBL1139025, “Biological studies of photoinducible phenol quaternary ammonium derivatives” (2006):
Calls of active or inactive are those of the source. No cut-off for these calls is given here.

Key:
Assay type in all cases: functional
Nucleic Acid = assay: Inhibition of DNA transcription by photoactivation at 10 uM
THP-1 [1] = assay: Apoptotic activity against human THP1 cells at 0.05 mM
THP-1 [2] = assay: Apoptotic activity against illuminated human THP1 cells at 0.05 mM

Row | Compound | Activity (Nucleic Acid) | Activity (THP-1 [1]) [%] | Activity (THP-1 [2]) [%]
1 | C[N+](C)(C)Cc1cc(O)c(C[N+](C)(C)C)cc1O | Active | – | –
2 | C[N+](C)(C)Cc1cc(-c2ccc(O)c(C[N+](C)(C)C)c2)ccc1O.[I-].[I-] | Active | 3.01 | 62.03
